Laboratory results published in US20040110763A1, “Pyrazolopyridine compound and pharmaceutical use thereof” (priority 2000, published 2004).

Row | Compound | melting point
1 | CCn1nc(-c2c(-c3ccccc3)nn3ccc(OC)cc23)ccc1=O [Example 116, 5-Methoxy-3-(3-oxo-2-ethyl-2,3-dihydropyridazin-6-yl)-2-phenylpyrazolo[1,5-a]pyridine] | 148 to 149 °C
2 | CCCn1nc(-c2c(-c3ccccc3)nn3ccc(OC)cc23)ccc1=O [Example 117, 5-Methoxy-3-(3-oxo-2-propyl-2,3-dihydropyridazin-6-yl)-2-phenylpyrazolo[1,5-a]pyridine] | 174 °C
3 | COc1ccn2nc(-c3ccccc3)c(-c3ccc(=O)n(C4CCOC4)n3)c2c1 (stereo not drawn) [Example 118, 5-Methoxy-3-[3-oxo-2-(tetrahydrofuran-3-yl)-2,3-dihydropyridazin-6-yl]-2-phenylpyrazolo[1,5-a]pyridine] | 207 to 208 °C
4 | COc1ccn2nc(-c3ccccc3)c(-c3ccc(=O)n([C@@H]4CCOC4)n3)c2c1 [Example 119, 5-Methoxy-3-[3-oxo-2-((3R)-tetrahydrofuran-3-yl)-2,3-dihydropyridazin-6-yl]-2-phenylpyrazolo[1,5-a]pyridine] | 194 to 195 °C
5 | COc1ccn2nc(-c3ccccc3)c(-c3ccc(=O)n([C@H]4CCOC4)n3)c2c1 [Example 120, 5-Methoxy-3-[3-oxo-2-((3S)-tetrahydrofuran-3-yl)-2,3-dihydropyridazin-6-yl]-2-phenylpyrazolo[1,5-a]pyridine] | 194 to 195 °C
6 | COCC(C)n1nc(-c2c(-c3ccccc3)nn3ccc(OC)cc23)ccc1=O (stereo not drawn) [Example 121, 5-Methoxy-3-[3-oxo-2-(1-methoxy-2-propyl)-2,3-dihydropyridazin-6-yl]-2-phenylpyrazolo[1,5-a]pyridine] | 138 to 139 °C
7 | COc1ccn2nc(-c3ccccc3)c(-c3ccc(=O)n(C4CCN(C)CC4)n3)c2c1 [Example 122, 5-methoxy-3-[3-oxo-2-(1-methylpiperidin-4-yl)-2,3-dihydropyridazin-6-yl]-2-phenylpyrazolo[1,5-a]pyridine] | 154 to 155 °C
8 | COc1ccn2nc(-c3ccccc3)c(-c3ccc(=O)n(C4CCCN(C)C4)n3)c2c1 (stereo not drawn) [Example 123, 5-Methoxy-3-[3-oxo-2-(1-methylpiperidin-3-yl)-2,3-dihydropyridazin-6-yl]-2-phenylpyrazolo[1,5-a]pyridine] | 179 to 180 °C
9 | COc1ccn2nc(-c3ccccc3)c(-c3ccc(=O)n(C4CCOCC4)n3)c2c1 [Example 124, 5-Methoxy-3-[3-oxo-2-(tetrahydropyran-4-yl)-2,3-dihydropyridazin-6-yl]-2-phenylpyrazolo[1,5-a]pyridine] | 224 to 225 °C
10 | COc1ccn2nc(-c3ccccc3F)c(-c3ccc(=O)n(C)n3)c2c1 [Example 126, 5-Methoxy-3-(3-oxo-2-methyl-2,3-dihydropyridazin-6-yl)-2-(2-fluorophenyl)pyrazolo[1,5-a]pyridine] | 220.5 to 221.5 °C
11 | COc1ccn2nc(-c3ccccc3F)c(-c3ccc(=O)n(C(C)C)n3)c2c1 [Example 127, 5-Methoxy-3-(3-oxo-2-isopropyl-2,3-dihydropyridazin-6-yl)-2-(2-fluorophenyl)pyrazolo[1,5-a]pyridine] | 174 to 175 °C
12 | COc1ccn2nc(-c3ccc(F)cc3)c(-c3ccc(=O)n(C(C)C)n3)c2c1 [Example 129, 5-Methoxy-3-(3-oxo-2-isopropyl-2,3-dihydropyridazin-6-yl)-2-(4-fluorophenyl)pyrazolo[1,5-a]pyridine] | 176 to 177 °C
13 | COc1ccn2nc(-c3ccc(F)cc3)c(-c3ccc(=O)n(C)n3)c2c1 [Example 130, 5-Methoxy-3-(3-oxo-2-methyl-2,3-dihydropyridazin-6-yl)-2-(4-fluorophenyl)pyrazolo[1,5-a]pyridine] | 221 to 222 °C
14 | CCn1nc(-c2c(-c3ccc(F)cc3)nn3ccc(OC)cc23)ccc1=O [Example 131, 5-Methoxy-3-(3-oxo-2-ethyl-2,3-dihydropyridazin-6-yl)-2-(4-fluorophenyl)pyrazolo[1,5-a]pyridine] | 179 to 180 °C
15 | CCCn1nc(-c2c(-c3ccc(F)cc3)nn3ccc(OC)cc23)ccc1=O [Example 132, 5-Methoxy-3-(3-oxo-2-propyl-2,3-dihydropyridazin-6-yl)-2-(4-fluorophenyl)pyrazolo[1,5-a]pyridine] | 190 to 191 °C
16 | Nc1cccc2c(-c3ccc(=O)[nH]n3)c(-c3ccccc3)nn12 [Example 133, 7-amino-3-(3-oxo-2,3-dihydropyridazin-6-yl)-2-phenylpyrazolo[1,5-a]pyridine] | 157 to 159 °C
17 | CC(C)n1nc(-c2c(-c3ccccc3)nn3c(N)cccc23)ccc1=O [Example 134, 7-Amino-3-(3-oxo-2-isopropyl-2,3-dihydropyridazin-6-yl)-2-phenylpyrazolo[1,5-a]pyridine] | 218 to 219 °C
18 | COc1ccn2nc(-c3ccccc3)c(-c3ccc(=O)n(C(C)C)n3)c2c1Br [Example 135, 4-bromo-5-methoxy-3-(3-oxo-2-isopropyl-2,3-dihydropyridazin-6-yl)-2-phenylpyrazolo[1,5-a]pyridine] | 205 to 206 °C

Row | Compound | melting point
19 | CC(C)n1nc(-c2c(-c3ccccc3)nn3ccc(C#CC(C)(C)O)cc23)ccc1=O [Example 136, 5-(3-hydroxy-3-methyl-1-butynyl)-3-(3-oxo-2-isopropyl-2,3-dihydropyridazin-6-yl)-2-phenylpyrazolo[1,5-a]pyridine] | 171 to 172 °C
20 | CC(C)n1nc(-c2c(-c3ccccc3)nn3ccc(C#Cc4ccccc4)cc23)ccc1=O [Example 138, 5-Phenylethynyl-3-(3-oxo-2-isopropyl-2,3-dihydropyridazin-6-yl)-2-phenylpyrazolo[1,5-a]pyridine] | 185 to 186 °C
21 | CC(C)n1nc(-c2c(-c3ccccc3)nn3ccc(C(=O)NC4CC4)cc23)ccc1=O [Example 139, N-cyclopropyl-3-(3-oxo-2-isopropyl-2,3-dihydropyridazin-6-yl)-2-phenylpyrazolo[1,5-a]pyridine-5-carboxamide] | 184 to 185 °C
22 | CC(C)n1nc(-c2c(-c3ccccc3)nn3ccc(C(=O)NC4CCCCCC4)cc23)ccc1=O [Example 140, N-Cycloheptyl-3-(3-oxo-2-isopropyl-2,3-dihydropyridazin-6-yl)-2-phenylpyrazolo[1,5-a]pyridine-5-carboxamide] | 239 to 240 °C
23 | CCCCNC(=O)c1ccn2nc(-c3ccccc3)c(-c3ccc(=O)n(C(C)C)n3)c2c1 [Example 143, N-(n-Butyl)-3-(3-oxo-2-isopropyl-2,3-dihydropyridazin-6-yl)-2-phenylpyrazolo[1,5-a]pyridine-5-carboxamide] | 185 to 186 °C
24 | CC(C)n1nc(-c2c(-c3ccccc3)nn3ccc(C(=O)NCc4ccccn4)cc23)ccc1=O [Example 144, N-(2-Pyridinylmethyl)-3-(3-oxo-2-isopropyl-2,3-dihydropyridazin-6-yl)-2-phenylpyrazolo[1,5-a]pyridine-5-carboxamide] | 193 to 194 °C
25 | CC(C)n1nc(-c2c(-c3ccccc3)nn3ccc(N)cc23)ccc1=O [Example 146, 5-amino-3-(3-oxo-2-isopropyl-2,3-dihydropyridazin-6-yl)-2-phenylpyrazolo[1,5-a]pyridine] | 196 to 197 °C
26 | CC(=O)Nc1ccn2nc(-c3ccccc3)c(-c3ccc(=O)n(C(C)C)n3)c2c1 [Example 147, 5-acetylamino-3-(3-oxo-2-isopropyl-2,3-dihydropyridazin-6-yl)-2-phenylpyrazolo[1,5-a]pyridine] | 221 to 222 °C
27 | CC(C)n1nc(-c2c(-c3ccccc3)nn3ccc(NC(=O)c4ccccc4)cc23)ccc1=O [Example 148, 5-Benzoylamino-3-(3-oxo-2-isopropyl-2,3-dihydropyridazin-6-yl)-2-phenylpyrazolo[1,5-a]pyridine] | 266 to 267 °C
28 | CC(C)C(=O)Nc1ccn2nc(-c3ccccc3)c(-c3ccc(=O)n(C(C)C)n3)c2c1 [Example 149, 5-(2-Methylpropanoylamino)-3-(3-oxo-2-isopropyl-2,3-dihydropyridazin-6-yl)-2-phenylpyrazolo[1,5-a]pyridine] | 199 to 200 °C
29 | CC(C)n1nc(-c2c(-c3ccccc3)nn3ccc(NS(C)(=O)=O)cc23)ccc1=O [Example 150, 5-Methylsulfonylamino-3-(3-oxo-2-isopropyl-2,3-dihydropyridazin-6-yl)-2-phenylpyrazolo[1,5-a]pyridine] | 193 to 194 °C
30 | COC(=O)Nc1ccn2nc(-c3ccccc3)c(-c3ccc(=O)n(C(C)C)n3)c2c1 [Example 151, Methyl 3-(3-oxo-2-isopropyl-2,3-dihydropyridazin-6-yl)-2-phenylpyrazolo[1,5-a]pyridin-5-ylcarbamate] | 213 to 214 °C
31 | CC(C)n1nc(-c2c(-c3ccccc3)nn3ccc(N4CCCC4=O)cc23)ccc1=O [Example 153, 5-(2-oxo-1-pyrrolidinyl)-3-(3-oxo-2-isopropyl-2,3-dihydropyridazin-6-yl)-2-phenylpyrazolo [1,5-a]pyridine] | 266 to 267 °C
32 | COCN(COC)c1ccn2nc(-c3ccccc3)c(-c3ccc(=O)n(C(C)C)n3)c2c1 [Example 154, 5-[bis(methoxymethyl)amino]-3-(3-oxo-2-isopropyl-2,3-dihydropyridazin-6-yl)-2-phenylpyrazolo[1,5-a]pyridine] | 148 to 150 °C
33 | CC(=O)Nc1cccc2c(-c3ccc(=O)n(C(C)C)n3)c(-c3ccccc3)nn12 [Example 187, 7-Acetylamino-3-(3-oxo-2-isopropyl-2,3-dihydropyridazin-6-yl)-2-phenylpyrazolo[1,5-a]pyridine] | 92 to 96 °C
34 | COc1cccn2nc(-c3ccccc3)c(-c3ccc(=O)n(C(C)C)n3)c12 [Example 194, 4-Methoxy-3-(3-oxo-2-isopropyl-2,3-dihydropyridazin-6-yl)-2-phenylpyrazolo[1,5-a]pyridine] | 185 to 186 °C
35 | CC(C)n1nc(-c2c(-c3ccccc3)nn3cccc(O)c23)ccc1=O [Example 195, 4-Hydroxy-3-(3-oxo-2-isopropyl-2,3-dihydropyridazin-6-yl)-2-phenylpyrazolo[1,5-a]pyridine] | 229 to 230 °C
36 | CCOc1cccn2nc(-c3ccccc3)c(-c3ccc(=O)n(C(C)C)n3)c12 [Example 196, 4-ethoxy-3-(3-oxo-2-isopropyl-2,3-dihydropyridazin-6-yl)-2-phenylpyrazolo[1,5-a]pyridine] | 157 to 158 °C
